# Reference: patent US20210022342A1, “THE USE OF SAFENERS TO IMPROVE RESISTANCE OF RICE CROP TO HERBICIDES” (Adama Agan Ltd., priority 2018, published 2021)
# Experiments:
# Type in all cases: in vivo
# [1] = tested on: mutant rice (ML0831265-01493, ATCC deposit PTA-12933, mutation G2096S); assay: Tank mixes of safeners with propaquizafop or quizalofop: regrowth of mutant rice
# Protocol: (§1) Seeds of a proprietary ACCase resistant rice variety, i.e. RTA1, was used. RTA1, ML0831265-01493 (ATCC deposit PTA-12933, mutation G2096S) variety rice seeds were supplied by RiceTec. RTA1 rice cultivar contains a single mutation in the ACCase gene that confer ACCase resistance. The mutation makes the enzyme insensitive to quizalofop.
# (§2) Mutant rice seeds were planted in commercial greenhouse soil mix in 10×10×10 cm plastic pots. 250 mL of soil was put into each pot, then the seeds were placed on top of the soil and the seeds were covered with 100-150 mL of soil. Approximately 8-10 seeds were planted per pot. The pots were then watered with 100 mL of a mixture of Miracle Grow and Fertiplus (iron supplement). The pots were placed in the greenhouse (38° C./20° C. day/night, 14 h photoperiod with supplemental light). The average light intensity in the greenhouse was 150 μM/m^2/sec.
# Plants were grown until 10 days after planting and then the pots were transferred to trays and the plants were grown under water. :Plants were treated when they reached the 3-5 leaf stage.
# Safeners were tank mixed with the herbicide in the spray bottle.
# (§3) Four days after treatment, the tops of the plants were cut off so that approximately 2.5 cm of plant from the top of the soil remain. The plants were allowed to regrow for 3 days at which time the amount of regrowth was weighed by measuring the amount of fresh weight of tissue that regrew. Comparing the weight of regrowth of shoots after cutting indicates the level of phytotoxicity the herbicide had on the mutant rice plant and the increased level of resistance of the mutant rice to the herbicide when the herbicide was applied in combination with the safener.
# The safeners were applied in various w/w ratios with the ACCase inhibiting herbicides to the rice plant.
# mutant rice = assay: Regrowth of mutant rice under low and high light intensity
# Text: as §3
# [2] = tested on: HPPD resistant rice variety; assay: HPPD herbicides with isoxadifen, regrowth of HPPD resistant mutant rice
# Protocol: The rice cultivar contains mutation(s) in the HPPD gene which makes the enzyme insensitive to mesotrione and/or tembotrione and/or isoxaflutole.
# Seed of HPPD resistant rice variety is planted in a commercial greenhouse soil mix in 10×10×10 cm plastic pots. 250 mL of soil is put into each pot, then the seed is placed on top of the soil and the seed is covered with 100-150 mL of soil. Approximately 8-10 seeds are planted per pot. The pots are then watered with 100 mL of a mixture of Miracle Grow and Fertiplus (iron supplement). The pots are placed in the greenhouse (38° C./20° C. day/night, 14 h photoperiod with supplemental light). The average light intensity in the greenhouse was 150 μM/m^2/sec.
# Plants are grown until 10 days after planting and then the pots are transferred to trays and plants are grown under water. Plants are treated when they reach the 3-5 leaf stage.
# Generally, plants are treated with 50-250 g/ha of mesotrione or tembotrione or isoxaflutole through a moving nozzle spray system in a spray volume of 200 l/ha or 187 l/ha. Isoxadifen is tank mixed with the herbicide in the spray bottle. The weight ratio of the safener to the herbicide in the tank mix is from 1:1 to 1:5.
# Four days after reatment, the tops of the plants are cut off to approximately 3 cm from the top of the soil. The plants are allowed to regrow for 7 days at which time the amount of regrowth is measured by cutting any growth above 3 cm above the top of soil and weighing the tissue that regrew.
# Efficacy test is conducted to determine the effect of mesotrione on mutant rice in the presence of isoxadifen.
# The weight the regrown shoot on mutant rice applied with mesotrione is compared with the weight of regrown shoot on mutant rice applied with mesotrione and isoxadifen at various rates.
# [3] = tested on: ACCase inhibitor resistant rice seeds (ML0831265-01493 (ATCC deposit PTA-12933, mutation G2096S)); assay: Safener seed treatment with propaquizafop or quizalofop: regrowth of resistant rice
# Protocol: as §1, §2
# Plants were grown until 10 days after planting and then the pots were transferred to trays and the plants were grown under water. :Plants were treated when they reached the 3-5 leaf stage. […]
# as §3
# The safeners were also applied in various w/w ratios of the ACCase inhibiting herbicides to the rice seeds.
# [4] = tested on: wild type rice (Non-Traited Rice); assay: Quizalofop dose response with or without isoxadifen, regrowth, wild type rice; conditions: calculated effect of safener alone, quizalofop 5.2 g/ha
# [5] = tested on: herbicide resistant rice crop (G2096S substitution, ML0831265-01493); assay: Quizalofop dose response with or without isoxadifen, regrowth, herbicide resistant rice
# Protocol: Four days after treatment, the tops of the plants were cut off so that approximately 2.5 cm of plant from the top of the soil remain. The plants were allowed to regrow for 3 days at which time the amount of regrowth was weighed by measuring the amount of fresh weight of tissue that regrew.
# The improvement in regrowth was calculated by subtracting the regrowth from a) wild type rice and wild type rice with isoxadifen; b) herbicide resistant rice; and c) herbicide resistant rice and isoxadifen.
# Calculations were done for each application rate of quizalofop. The efficacy of safener alone and mutation alone on decreasing herbicide effect/increasing herbicide resistance were calculated. The relative fresh weight re-growth is the percentage of activity (for Colby).
# The re-growth data was implemented in curve and the synergistic effect was calculated.
# in which E represents the percentage of regrowth expected for the application of safener on mutant rice crop at the defined doses of herbicide. X is the percentage of regrowth for the application of safener on wildtype rice crop at the defined doses of herbicide. Y is the percentage of regrowth for mutant rice crop at the defined doses of herbicide without safener application. When the percentage of regrowth observed for the application of safener on mutant rice crop at the defined doses of herbicide is greater than expected as calculated using the Colby equation, there is a synergistic effect.
# weedy rice = assay: Regrowth of weedy rice after quizalofop ethyl; conditions: at the rates tested
# Text: The amount of plant regrowth observed for the ACCase resistant rice is compared to the amount of regrowth observed for the weedy rice. The weedy rice was killed by quizalofop ethyl at the rates tested, so there was no regrowth.
# [6] = isoxaflutole with isoxadifen vs same mutant rice not treated with isoxadifen
# [7] = mesotrione with isoxadifen vs same mutant rice not treated with isoxadifen
# [8] = tembotrione with isoxadifen vs same mutant rice not treated with isoxadifen
structure (smiles),measurement,setting,value
"O=C(O)C1=NOC(c2ccccc2)(c2ccccc2)C1 [Isoxadifen, isoxadifen]",Regrowth (fresh weight mg),"[1]; tank mix with propaquizafop 50 g/ha, safener 12.5 g/ha",38 mg
same,Regrowth (fresh weight mg),"[1]; tank mix with propaquizafop 50 g/ha, safener 25 g/ha",258 mg
same,Regrowth (fresh weight mg),"[1]; tank mix with propaquizafop 50 g/ha, safener 50 g/ha",310 mg
same,Regrowth (fresh weight mg),"[1]; tank mix with propaquizafop 50 g/ha, safener 100 g/ha",488 mg
same,Regrowth (fresh weight mg),"[1]; tank mix with quizalofop 40 g/ha, safener 12.5 g/ha",87 mg
same,Regrowth (fresh weight mg),"[1]; tank mix with quizalofop 40 g/ha, safener 25 g/ha",285 mg
same,Regrowth (fresh weight mg),"[1]; tank mix with quizalofop 40 g/ha, safener 50 g/ha",335 mg
same,Regrowth (fresh weight mg),"[1]; tank mix with quizalofop 40 g/ha, safener 100 g/ha",462 mg
same,regrowth of the mutant rice,"mutant rice; high light intensity, quizalofop with isoxadifen, any of the rates tested",regrowth was not significant affected
same,Regrowth (mg FW),"mutant rice; high light intensity, with safener, herbicide 0 g/ha",540 mg FW
same,reduction in growth of the mutant rice,"mutant rice; low light intensity, 40 g/ha quizalofop with 100 g/ha isoxadifen",less than 20%
same,Regrowth (mg FW),"mutant rice; low light intensity, with safener, herbicide 0 g/ha",183 mg FW
same,level of resistance of the mutant rice to isoxaflutole,[2]; [6],significantly increases the level of resistance
same,phytotoxicity of isoxaflutole on the mutant rice,[2]; [6],significantly reduces the phytotoxicity
same,level of resistance of the mutant rice to mesotrione,[2]; [7],significantly increases the level of resistance
same,phytotoxicity of mesotrione on the mutant rice,[2]; [7],significantly reduces the phytotoxicity
same,level of resistance of the mutant rice to tembotrione,[2]; [8],significantly increases the level of resistance
same,phytotoxicity of tembotrione on the mutant rice,[2]; [8],significantly reduces the phytotoxicity
same,Regrowth (fresh weight mg),"[3]; propaquizafop, safener seed treatment 0.5 g/kg of seed",133 mg
same,Regrowth (fresh weight mg),"[3]; propaquizafop, safener seed treatment 1 g/kg of seed",170 mg
same,Regrowth (fresh weight mg),"[3]; propaquizafop, safener seed treatment 2 g/kg of seed",298 mg
same,Regrowth (fresh weight mg),"[3]; quizalofop, safener seed treatment 0.5 g/kg of seed",165 mg
same,Regrowth (fresh weight mg),"[3]; quizalofop, safener seed treatment 1 g/kg of seed",103 mg
same,Regrowth (fresh weight mg),"[3]; quizalofop, safener seed treatment 2 g/kg of seed",80 mg
"CCOC(=O)[C@@H](C)Oc1ccc(Oc2cnc3cc(Cl)ccc3n2)cc1 [Quizalofop, quizalofop P-ethyl]",Regrowth (fresh weight mg),"[1]; quizalofop 40 g/ha, no safener",70 mg
same,inhibition of growth of the mutant rice,"mutant rice; high light intensity (800-1000 uM/m2/sec), 40 g/ha quizalofop, no safener",no inhibition of growth
same,reduction in growth of the mutant rice,"mutant rice; high light intensity, 70 g/ha quizalofop, no safener",over 80%
same,Regrowth (mg FW),"mutant rice; high light intensity, no safener, herbicide 30 g/ha",447 mg FW
same,Regrowth (mg FW),"mutant rice; high light intensity, no safener, herbicide 40 g/ha",533 mg FW
same,Regrowth (mg FW),"mutant rice; high light intensity, no safener, herbicide 50 g/ha",220 mg FW
same,Regrowth (mg FW),"mutant rice; high light intensity, no safener, herbicide 60 g/ha",107 mg FW
same,Regrowth (mg FW),"mutant rice; high light intensity, no safener, herbicide 70 g/ha",76.7 mg FW
same,Regrowth (mg FW),"mutant rice; high light intensity, with safener (isoxadifen), herbicide 30 g/ha",630 mg FW
same,Regrowth (mg FW),"mutant rice; high light intensity, with safener (isoxadifen), herbicide 40 g/ha",533 mg FW
same,Regrowth (mg FW),"mutant rice; high light intensity, with safener (isoxadifen), herbicide 50 g/ha",603 mg FW
same,Regrowth (mg FW),"mutant rice; high light intensity, with safener (isoxadifen), herbicide 60 g/ha",427 mg FW
same,Regrowth (mg FW),"mutant rice; high light intensity, with safener (isoxadifen), herbicide 70 g/ha",540 mg FW
same,reduction in growth of the mutant rice,"mutant rice; low light intensity (150 uM/m2/sec), 40 g/ha quizalofop, no safener",80%
same,Regrowth (mg FW),"mutant rice; low light intensity, no safener, herbicide 30 g/ha",30 mg FW
same,Regrowth (mg FW),"mutant rice; low light intensity, no safener, herbicide 40 g/ha",0 mg FW
same,Regrowth (mg FW),"mutant rice; low light intensity, no safener, herbicide 50 g/ha",0 mg FW
same,Regrowth (mg FW),"mutant rice; low light intensity, no safener, herbicide 60 g/ha",0 mg FW
same,Regrowth (mg FW),"mutant rice; low light intensity, no safener, herbicide 70 g/ha",0 mg FW
same,Regrowth (mg FW),"mutant rice; low light intensity, with safener (isoxadifen), herbicide 30 g/ha",117 mg FW
same,Regrowth (mg FW),"mutant rice; low light intensity, with safener (isoxadifen), herbicide 40 g/ha",100 mg FW
same,Regrowth (mg FW),"mutant rice; low light intensity, with safener (isoxadifen), herbicide 50 g/ha",150 mg FW
same,Regrowth (mg FW),"mutant rice; low light intensity, with safener (isoxadifen), herbicide 60 g/ha",50 mg FW
same,Regrowth (mg FW),"mutant rice; low light intensity, with safener (isoxadifen), herbicide 70 g/ha",30 mg FW
same,Efficacy at ED50 of mutant- 5.2 g/ha (%),[4],26%
same,Calculated efficacy base on Colby (%),"[5]; expected for mutant & safener, quizalofop 5.2 g/ha",63%
same,"additive effect of safener and mutation, increase in ED50","[5]; expected, compared to wildtype rice without safener",5.1 fold
same,observed increase in ED50,[5]; herbicide resistant rice with safener compared to wildtype rice without safener,31.4 fold
same,Observed efficacy (%),"[5]; mutant & safener, quizalofop 5.2 g/ha",92%
same,Efficacy at ED50 of mutant- 5.2 g/ha (%),"[5]; mutant alone, quizalofop 5.2 g/ha",50%
same,increase in tolerance to herbicide (ED50) by the mutation,"[5]; mutant rice vs wildtype rice, no safener",2.4 fold
same,Regrowth (fresh weight mg),"[3]; quizalofop, seeds without safener",107 mg
same,Effect on weedy rice (regrowth),weedy rice,killed
